Results taken from PMC6696049, “Pharmacophoric Site Identification and Inhibitor Design for Autotaxin” (Molecules, 2019).

Tests used:
[1] = target: human ENPP2 (Homo sapiens, UniProt Q13822); assay: In vitro bis-pNPP assay (ATX inhibitory activity); assay type: biochemical; details: for IC50: in vitro bis-pNPP assay, human ENPP2
Protocol: We confirmed the ATX inhibitory activity of each compound using bis-pNPP assay. First, 50 μL of 60 mM Tris-HCl (pH 9.0) solution was poured into a 96-well plate and 10 μL of the test compound solution (10% dimethyl sulfoxide) was added. Subsequently, 20 μL of a 3.75 nM human ENPP2 solution (buffer: 50 mM Tris-HCl (pH 8.5), 5 mM CaCl2, 2.5 mM MgCl2, 0.002% Brij 35) and 20 μL of 25 mM bis-pNPP solution (buffer: 50 mM Tris-HCl (pH 9.0)) were added and mixed. Spectrophotometric measurement was carried out at 405 nm at intervals of 10 s while reacting under 37 °C for 10 min.

[2] = target: T1, ATX (Homo sapiens, UniProt Q13822); assay: Ex vivo human plasma assay (LPC to LPA, LC-MS/MS); assay type: biochemical; details: 37 °C, 3 h
T1 construct: from tissue; host or cells: human plasma / serum
Protocol: First, 5 μL of each test compound solution (10 mM, 100% dimethyl sulfoxide) was diluted 100 times with 495 μL of methanol and then 3 μL of a diluted methanol solution (1% dimethyl sulfoxide) was added to a human or rat serum solution. Next, 12 μL of the test compound solution was mixed into 48 μL of 100% serum in order to make 5 concentrations, and each tube was placed in a constant temperature water bath at 37 °C for 15 min. Subsequently, 10 mg/mL 18: 1 LPC solution (50% ethanol) was diluted to 375 μg/mL with serum and 2 μL was dispensed into each tube to make 50 μL. Each tube was reacted in a constant temperature water bath at 37 °C for 3 h. Then, 100 μL of a 0.5 μM 17:0 LPA solution (Chloroform/Methanol/Water = 65/35/8) was added to the reaction tube. Reaction mixture was centrifuged at 14,000 rpm, at 4 °C for 10 min in a centrifuge. Thereafter, 100 μL of 50% methanol solution was first dissolved in a 96-well polypropylene plate (Agilent Technologies 5042-1385, Santa Clara, CA, USA), and then 50 μL of the supernatant was carefully transferred from the centrifuged tube to the plate. Then, it was covered with a well cap (Thermo 276011, Thermo Fisher Scientific Solutions LLC, Seoul, Korea) and analyzed by LC-MS/MS (Agilent 1260).

IC50 [1]	IC50 [2]	potency relative to compound 1 in the bis-pNPP assay ([1]; ratio of bis-pNPP IC50 values, compound 2 vs compound 1)	Structure (SMILES)
0.0127 µM	–	–	NS(=O)(=O)Nc1ccc(C(=O)Nc2ccc3c(c2)CN(C(=O)OCc2cc(Cl)cc(Cl)c2)C3)cc1 [Compound 4, (3,5-dichlorophenyl)methyl 5-[4-(sulfamoylamino)benzamido]-2,3-dihydro-1H-isoindole-2-carboxylate]
0.00386 µM	0.827 µM	–	NS(=O)(=O)Nc1ccc(NC(=O)c2ccc3c(c2)CN(C(=O)OCc2cc(Cl)cc(Cl)c2)C3)cc1 [Compound 3, (3,5-dichlorophenyl)methyl 5-{[4-(sulfamoylamino)phenyl]carbamoyl}-2,3-dihydro-1H-isoindole-2-carboxylate]
0.0445 µM	–	five-fold more potent	NS(=O)(=O)Nc1ccc(C(=O)NC2CCN(C(=O)OCc3cc(Cl)cc(Cl)c3)CC2)cc1 [Compound 2, (3,5-dichlorophenyl)methyl 4-[4-(sulfamoylamino)benzamido]piperidine-1-carboxylate]
